Assay results taken from paper PMC7044277 (Nature Communications, 2020).
“And” between values parts separate entries of the source, which are not always exact repeats. Identical values can stand only once.

Columns and labels:
Assay type in all cases: cell-based
DRD2 S1975.46G = target: T1, DRD2 S1975.46G (Homo sapiens, UniProt P14416, S197G); test: Gαi/o-mediated cAMP inhibition (GloSensor), mutant; conditions: DRD2 Ser197^5.46Gly; G-protein assay
T1 construct: expressed in transfected cells; host or cells: HEK293T (ATCC CRL-11268)
T1 sequence (P14416 whole entry S197G): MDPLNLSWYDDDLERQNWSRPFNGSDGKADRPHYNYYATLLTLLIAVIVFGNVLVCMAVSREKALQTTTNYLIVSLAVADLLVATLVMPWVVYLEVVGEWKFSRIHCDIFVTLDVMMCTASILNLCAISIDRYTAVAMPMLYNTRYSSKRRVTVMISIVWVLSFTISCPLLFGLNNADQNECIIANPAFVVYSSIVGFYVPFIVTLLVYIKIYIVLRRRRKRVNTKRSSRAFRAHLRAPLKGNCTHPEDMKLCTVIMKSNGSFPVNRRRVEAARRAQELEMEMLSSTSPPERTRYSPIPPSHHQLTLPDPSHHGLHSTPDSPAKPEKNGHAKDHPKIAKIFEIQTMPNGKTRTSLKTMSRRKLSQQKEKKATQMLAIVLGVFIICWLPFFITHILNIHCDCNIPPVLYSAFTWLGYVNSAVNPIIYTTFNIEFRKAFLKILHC

DRD2 S1935.42G = target: T2, DRD2 S1935.42G (Homo sapiens, UniProt P14416, S193G); test: Gαi/o-mediated cAMP inhibition (GloSensor), mutant; conditions: DRD2 Ser5.42Gly; G-protein assay
T2 construct: expressed in transfected cells; host or cells: HEK293T (ATCC CRL-11268)
T2 sequence (P14416 whole entry S193G): as the sequence (P14416 whole entry S197G) above, with S193G, G197S counted along it

5HT2C = target: T3, 5HT2C (Homo sapiens, UniProt P28335); test: β-arrestin2 recruitment (Tango); conditions: Fig_S10m; for β-arrestin2 recruitment response in presence of serotonin (replicate values): +10μM serotonin; for β-arrestin2 recruitment response (dose-response source data, replicate values): drug alone
T3 sequence (P28335 33-458): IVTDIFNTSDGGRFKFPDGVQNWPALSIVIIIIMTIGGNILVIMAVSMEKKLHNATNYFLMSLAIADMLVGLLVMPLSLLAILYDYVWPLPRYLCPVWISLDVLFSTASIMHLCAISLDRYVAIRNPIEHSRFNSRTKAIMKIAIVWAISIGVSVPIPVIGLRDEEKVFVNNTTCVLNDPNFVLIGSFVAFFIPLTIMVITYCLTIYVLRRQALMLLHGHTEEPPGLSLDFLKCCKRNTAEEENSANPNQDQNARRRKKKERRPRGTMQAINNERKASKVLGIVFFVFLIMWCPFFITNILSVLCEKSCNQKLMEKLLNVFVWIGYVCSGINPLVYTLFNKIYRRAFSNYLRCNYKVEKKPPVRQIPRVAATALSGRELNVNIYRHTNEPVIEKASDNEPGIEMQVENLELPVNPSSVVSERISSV

DRD1 = DRD1 (Homo sapiens, UniProt P21728); test: β-arrestin2 recruitment (Tango); conditions: agonist mode
Sequence of DRD1 (P21728 whole entry): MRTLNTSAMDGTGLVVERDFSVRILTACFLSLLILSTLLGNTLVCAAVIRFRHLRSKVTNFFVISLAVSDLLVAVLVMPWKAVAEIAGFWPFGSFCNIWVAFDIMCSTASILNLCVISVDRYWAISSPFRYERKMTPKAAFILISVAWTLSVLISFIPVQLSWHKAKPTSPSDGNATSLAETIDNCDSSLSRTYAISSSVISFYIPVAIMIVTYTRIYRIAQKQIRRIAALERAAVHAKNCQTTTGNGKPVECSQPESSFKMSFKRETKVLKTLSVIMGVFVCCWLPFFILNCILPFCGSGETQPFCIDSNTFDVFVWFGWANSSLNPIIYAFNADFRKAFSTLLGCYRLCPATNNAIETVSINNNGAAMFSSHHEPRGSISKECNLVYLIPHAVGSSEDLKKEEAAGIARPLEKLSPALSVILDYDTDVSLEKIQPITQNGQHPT

5HT6 = target: T4, 5HT6 (Homo sapiens, UniProt P50406); test: β-arrestin2 recruitment (Tango); conditions: Fig_S10p, agonist mode
T4 construct: expressed in transfected cells; host or cells: HTLA cells expressing TEV-fused β-arrestin2
T4 sequence (P50406 whole entry, the tested form may be a part): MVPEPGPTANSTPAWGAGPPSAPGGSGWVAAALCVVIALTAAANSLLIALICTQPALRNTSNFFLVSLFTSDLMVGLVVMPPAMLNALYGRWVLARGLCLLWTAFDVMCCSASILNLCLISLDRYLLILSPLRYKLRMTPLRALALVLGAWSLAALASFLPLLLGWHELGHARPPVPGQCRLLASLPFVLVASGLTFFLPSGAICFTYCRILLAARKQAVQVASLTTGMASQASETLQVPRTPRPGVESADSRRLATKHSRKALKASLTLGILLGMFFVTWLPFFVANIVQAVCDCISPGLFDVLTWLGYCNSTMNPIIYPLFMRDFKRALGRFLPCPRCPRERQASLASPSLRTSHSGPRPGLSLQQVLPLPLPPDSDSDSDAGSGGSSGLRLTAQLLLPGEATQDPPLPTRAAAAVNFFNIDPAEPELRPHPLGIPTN

Structure (SMILES): CCOc1cccc2cc([C@H](C)NCC3(O)CCCCC3)oc12 [O4SE6]
- agonism after serine to glycine substitution (DRD2 S1975.46G): impaired
- agonism after serine to glycine substitution (DRD2 S1935.42G): impaired
- β-arrestin2 recruitment response in presence of serotonin (replicate values) (5HT2C; Log[Drug] -5): 45.7461 and 51.1482 and 53.4841 and 61.6893 and 54.4017 and 57.753 and 67.2866 and 83.7427 and 85.1445
- β-arrestin2 recruitment response (dose-response source data, replicate values) (5HT2C; Log[Drug] -5): -3.262 and -0.5555 and 0.5642 and 1.204 and -0.4664 and 1.061 and -2.805 and 1.039 and 3.566
- β-arrestin2 recruitment response in presence of serotonin (replicate values) (5HT2C; Log[Drug] -5.52): 76.8132 and 54.1781 and 71.9421 and 67.2323 and 56.1903 and 49.3738 and 64.9568 and 69.9468 and 71.0617
- β-arrestin2 recruitment response (dose-response source data, replicate values) (5HT2C; Log[Drug] -5.52): -3.477 and -1.313 and -1.505 and -0.3021 and 0.7731 and -0.1754 and 1.049 and -1.9165 and -0.666
- β-arrestin2 recruitment response in presence of serotonin (replicate values) (5HT2C; Log[Drug] -6): 57.6708 and 60.6404 and 63.9932 and 75.4508 and 75.7722 and 57.215 and 86.3739 and 65.9717 and 77.801
- β-arrestin2 recruitment response (dose-response source data, replicate values) (5HT2C; Log[Drug] -6): 0.1892 and -1.167 and -2.9638 and 0.5481 and 0.639 and 4.5826 and 1.774 and -1.813 and -1.0517
- β-arrestin2 recruitment response in presence of serotonin (replicate values) (5HT2C; Log[Drug] -6.52): 49.4392 and 65.2785 and 58.4136 and 69.39 and 55.9424 and 71.2915 and 76.7849 and 85.9817 and 94.9705
- β-arrestin2 recruitment response (dose-response source data, replicate values) (5HT2C; Log[Drug] -6.52): 3.199 and -0.222 and 0.3914 and 1.323 and 0.05601 and 0.9925 and -1.994 and 1.303 and -2.122
- β-arrestin2 recruitment response in presence of serotonin (replicate values) (5HT2C; Log[Drug] -7): 67.4184 and 56.2577 and 61.082 and 74.1195 and 66.0313 and 86.1338 and 77.8195 and 67.5788 and 79.0331
- β-arrestin2 recruitment response (dose-response source data, replicate values) (5HT2C; Log[Drug] -7): -0.4648 and -1.599 and 4.168 and 0.2351 and 1.745 and 2.334 and 14.5501 and 3.184 and 0.1487
- β-arrestin2 recruitment response in presence of serotonin (replicate values) (5HT2C; Log[Drug] -7.52): 57.9508 and 62.7389 and 68.9932 and 62.9857 and 78.9582 and 61.3863 and 70.1719 and 83.8296 and 68.1225
- β-arrestin2 recruitment response (dose-response source data, replicate values) (5HT2C; Log[Drug] -7.52): -1.179 and -0.8967 and -0.04778 and 2.819 and 2.117 and -0.4591 and 1.974 and -0.9095 and 6.65
- β-arrestin2 recruitment response in presence of serotonin (replicate values) (5HT2C; Log[Drug] -8): 70.2712 and 69.291 and 73.2872 and 71.712 and 66.0148 and 66.2452 and 79.2674 and 70.1943 and 78.2394
- β-arrestin2 recruitment response (dose-response source data, replicate values) (5HT2C; Log[Drug] -8): -1.7418 and -1.636 and 0.2046 and 0.909 and -0.4958 and 0.1891 and 1.914 and -0.383 and 4.332
- β-arrestin2 recruitment response in presence of serotonin (replicate values) (5HT2C; Log[Drug] -8.52): 72.9942 and 69.4566 and 60.9768 and 61.1778 and 82.5318 and 58.5381 and 71.529 and 76.0793 and 77.135
- β-arrestin2 recruitment response (dose-response source data, replicate values) (5HT2C; Log[Drug] -8.52): -0.5405 and -0.709 and 2.709 and 0.684 and 1.936 and 3.627 and 2.573 and 6.06 and -0.7082
- β-arrestin2 recruitment response in presence of serotonin (replicate values) (5HT2C; Log[Drug] -9): 65.7886 and 59.3306 and 51.1636 and 117.587 and 77.0604 and 77.3487 and 69.8244 and 87.7165 and 82.2092
- β-arrestin2 recruitment response (dose-response source data, replicate values) (5HT2C; Log[Drug] -9): -2.125 and 1.403 and -1.228 and 0.9062 and -0.6032 and 0.5546 and 2.207 and 4.8202 and 4.806
- β-arrestin2 recruitment response in presence of serotonin (replicate values) (5HT2C; Log[Drug] -9.52): 71.3301 and 78.8962 and 71.9628 and 82.1452 and 81.8826 and 58.8025 and 76.3992 and 91.8022 and 69.3558
- β-arrestin2 recruitment response (dose-response source data, replicate values) (5HT2C; Log[Drug] -9.52): -0.7505 and -1.198 and -1.073 and 2.378 and 0.7896 and 2.704 and -0.6423 and 0.9477 and 0.7345
- Fig_S10d concentration-response source data, compound alone (replicates) (DRD1; Log[Drug] -6.52): 1.081
- Fig_S10d concentration-response source data, compound alone (replicates) (DRD1; Log[Drug] -7): 1.077 and 2.449 and 0.7206 and 0.01093 and 0.2616 and 0.5709 and 0.4663 and -0.4785 and 0.5459
- Fig_S10d concentration-response source data, compound alone (replicates) (DRD1; Log[Drug] -7.52): 0.3818 and 0.7249 and 2.612 and 1.107 and 0.1296 and 1.638 and 0.2406 and 0.3904 and 0.4963
- Fig_S10d concentration-response source data, compound alone (replicates) (DRD1; Log[Drug] -8): 4.337 and 0.3775 and 1.059 and 0.9723 and 0.606 and 0.3811 and 0.01404 and 0.5796 and 0.0103
- Fig_S10d concentration-response source data, compound alone (replicates) (DRD1; Log[Drug] -8.52): 1.411 and 0.7206 and 3.809 and 2.0766 and 0.164 and 0.2319 and -0.01873 and 0.09082 and 0.3165
- Fig_S10d concentration-response source data, compound alone (replicates) (DRD1; Log[Drug] -9): -0.3131 and 1.5871 and 3.29 and -0.05311 and -0.07654 and 0.3577 and 0.09363 and 0.0515 and 0.4204
- Fig_S10d concentration-response source data, compound alone (replicates) (DRD1; Log[Drug] -9.52): 3.9849 and 1.227 and 1.561 and 0.082 and -0.1093 and 0.5131 and -0.06273 and 0.7238 and 1.497
- Fig_S10d concentration-response source data, compound alone (replicates) (DRD1; Log[Drug] -10): 3.981 and 1.729 and 5.684 and -0.04842 and 0.2671 and 0.3249 and 0.426 and 0.4251 and 0.5346
- Fig_S10d concentration-response source data, compound alone (replicates) (DRD1; Log[Drug] -10.52): 0.712 and 1.746 and 4.122 and 0.3608 and 0.264 and 0.2335 and 1.101 and -0.02996 and 0.2809
- Fig_S10d concentration-response source data, compound alone (replicates) (DRD1; Log[Drug] -11): 2.269 and 1.742 and 3.972 and 0.1742 and 0.3296 and 0.01406 and 0.6835 and 1.257 and -0.2856
- Fig_S10d concentration-response source data, compound alone (replicates) (DRD1; Log[Drug] -11.52): 0.3861 and 1.068 and 2.775 and -0.2327 and -0.01484 and 0.1414 and 0.7734 and -0.7734 and -0.2032
- Fig_S10d concentration-response source data, compound alone (replicates) (DRD1; Log[Drug] -12): 1.754 and 0.5705 and -0.2917 and 0.1156 and 0.2702 and 0.1429 and -0.6489 and -0.1919 and -0.08146
- β-arrestin2 recruitment response, replicate points of concentration-response curve (5HT6; Log[Drug] -6): -0.3035
- β-arrestin2 recruitment response, replicate points of concentration-response curve (5HT6; Log[Drug] -6.52): 1.0135 and 1.198 and 5.246 and -9.543 and -10.288 and -8.77 and 1.1615 and -3.588 and -1.1467
- β-arrestin2 recruitment response, replicate points of concentration-response curve (5HT6; Log[Drug] -7): 1.87 and 1.848 and 8.574 and -11.7696 and -2.512 and -8.797 and 0.1776 and -4.113 and -5.009
- β-arrestin2 recruitment response, replicate points of concentration-response curve (5HT6; Log[Drug] -7.52): 1.593 and -0.504 and 0.09756 and -12.1009 (2×) and -11.7328 and 60.6717 and -4.6608 and -1.753
- β-arrestin2 recruitment response, replicate points of concentration-response curve (5HT6; Log[Drug] -8): 1.669 and -1.382 and -0.2872 and -13.1683 and -12.0825 and -9.524 and -3.196 and -2.353 and 1.768
- β-arrestin2 recruitment response, replicate points of concentration-response curve (5HT6; Log[Drug] -8.52): 0.775 and 4.666 and 0.9864 and -12.4781 and -7.656 and -12.1009 and 0.3255 and -3.854 and 3.566
- β-arrestin2 recruitment response, replicate points of concentration-response curve (5HT6; Log[Drug] -9): 2.499 and 9.663 and 0.775 and -0.2945 and -9.561 and -9.543 and -2.049 and -4.424 and -4.173
- β-arrestin2 recruitment response, replicate points of concentration-response curve (5HT6; Log[Drug] -9.52): -0.09214 and 0.5474 and -0.9647 and -12.1929 and -11.3831 and -2.5214 and -5.0455 and -0.3107 and 5.623
- β-arrestin2 recruitment response, replicate points of concentration-response curve (5HT6; Log[Drug] -10): 3.149 and 2.721 and -0.1138 and 8.135 and -9.598 and -12.4689 and 1.768 and 2.893 and -2.7151
- β-arrestin2 recruitment response, replicate points of concentration-response curve (5HT6; Log[Drug] -10.52): 2.504 and 5.311 and 0.7425 and -10.7297 and -3.616 and -12.1193 and -4.52 and 13.3166 and 0.2515
- β-arrestin2 recruitment response, replicate points of concentration-response curve (5HT6; Log[Drug] -11): 0.5474 and 6.401 and -0.2981 and -6.662 and -9.929 and -5.0796 and -2.915 and -3.588 and -2.353
- β-arrestin2 recruitment response, replicate points of concentration-response curve (5HT6; Log[Drug] -11.52): 1.409 and 4.46 and -0.7262 and -4.371 and -12.837 and -12.1009 and -3.803 and -3.24 and -3.847
